Test results as given in patent US20150335692A1, “ORAL PREPARATION, INJECTION PREPARATION, EXTERNAL SKIN PREPARATION AND COSMETIC METHOD FOR PREVENTING OR IMPROVING WRINKLES” (Shiseido Company, Ltd., priority 2008, published 2015).

How the values were obtained:
[1] = tested on: basement membrane heparan sulfate chains; experiment: Immunostaining of epidermal basement membrane heparan sulfate chains in skin of fine wrinkle model; format: in vivo; conditions: skin coated with 1 mM compound versus 50% ethanol solvent control
From the text: Next, heparan sulfate chains were immunostained for the skin after 2 days, 1 week and 2 weeks, and the staining results are shown in FIG. 4. Although staining of basement membrane heparan sulfate chains decreased from 2 days to 1 week in skin of the solvent control, stainability of basement membrane heparan sulfate chains was protected by application of suramin.
Next, heparan sulfate chains and perlecan core protein in the skin were immunostained, and the staining results are shown in FIG. 6. Although staining of basement membrane heparan sulfate chains decreased considerably for the solvent control, stainability of basement membrane heparan sulfate chains was protected in the 1-[4-(1H-benzoimidazol-2-yl)-phenyl]-3-[4-(1H-benzoimidazol-2-yl)-phenyl]-urea application group.

fine wrinkle model = experiment: Anti-wrinkle effects in fine wrinkle model (visual wrinkle score); format: in vivo; conditions: 1 mM in 50% aqueous ethanol, 100 μl applied to skin three times a week for two weeks; scored two weeks later; higher scores indicate deeper wrinkles
Experimental: The anti-wrinkle effects of the heparanase inhibitor, suramin, were assessed using a fine wrinkle model (Non-Patent Document 2).
Suramin was dissolved in 50% aqueous ethanol solution to a concentration of 1 mM and applied in 100 μl aliquots to skin of the fine wrinkle model three times a week for a period of two weeks during which time fine wrinkles are formed. A 50% aqueous ethanol solution was used as a solvent control.
The formation of wrinkles two weeks later was scored by visual evaluation. Wrinkle formation was scored in increments of 0.5 based on evaluation criteria consisting of: no wrinkles: 0, slight wrinkles: 1, obvious wrinkles: 2 and deep wrinkles: 3. Higher scores indicate deeper wrinkles. In contrast to the mean value of the scores of the solvent control being 0.78, that for suramin was 0.31, thereby indicating significant wrinkle inhibitory effects as compared with the solvent control. Namely, the application of suramin at 1 mM significant inhibited wrinkle formation as compared with 50% ethanol applied as a solvent control. […]
The formation of wrinkles two weeks later was scored by visual evaluation. Wrinkle formation was scored in increments of 0.5 based on evaluation criteria consisting of: no wrinkles: 0, slight wrinkles: 1, obvious wrinkles: 2 and deep wrinkles: 3. […]

HT1080 cells = experiment: Secondary evaluation: wound healing assay using HT1080 cells; format: cell-based; conditions: HT1080 cells, 1, 10, 100 μM, DMSO control
From the text: (§1) As will be described in detail in the following examples, primary evaluation of heparanase activity can be carried out by, for example, immobilizing biotinylated heparan sulfate in a 96-well plate, allowing the heparanase to act in the presence of a pharmaceutical preparation or herbal medicine, and evaluating the activity of heparanase as the amount of the decrease in biotinylated heparan sulfate by allowing peroxidase-labeled avidin to act thereon and developing the resulting color. […] Secondary evaluation can be carried out by using HT1080 cells expressing heparanase. When HT1080 cells are scratched after having been cultured to confluency, cells are known to migrate in a heparanase activity-dependent manner (see Ishida, K., et al., Mol. Cancer Ther., 2004, 3(9): 1069-1077 (Non-Patent Document 4)). Therefore, heparanase inhibitory activity can be evaluated on the basis of the degree of migration (recovery) at the scratched site by adding an evaluation reagent.
HT1080 cells were inoculated into a 6-well plate at 500,000 cells/well, and the medium was replaced with that containing each drug 24 hours later followed by scratching in the vertical direction with a 1000 μL tip. Micrographs were taken 6 hours later and changes at the scratched site were observed. […] DMSO was allowed to act as a control instead of the candidate drugs.

heparanase = target: T1, heparanase (Homo sapiens, UniProt Q9Y251); experiment: Primary evaluation: heparanase activity inhibition, A431 cell extract on biotinylated heparan sulfate-immobilized plate; format: biochemical; conditions: 2 hours at 37° C., DMSO control
T1 construct: the resulting supernatant was used as a cell extract; endogenous in cells; host or cells: A431 cells (lysate supernatant)
T1 sequence (Q9Y251 158-543 limits assumed): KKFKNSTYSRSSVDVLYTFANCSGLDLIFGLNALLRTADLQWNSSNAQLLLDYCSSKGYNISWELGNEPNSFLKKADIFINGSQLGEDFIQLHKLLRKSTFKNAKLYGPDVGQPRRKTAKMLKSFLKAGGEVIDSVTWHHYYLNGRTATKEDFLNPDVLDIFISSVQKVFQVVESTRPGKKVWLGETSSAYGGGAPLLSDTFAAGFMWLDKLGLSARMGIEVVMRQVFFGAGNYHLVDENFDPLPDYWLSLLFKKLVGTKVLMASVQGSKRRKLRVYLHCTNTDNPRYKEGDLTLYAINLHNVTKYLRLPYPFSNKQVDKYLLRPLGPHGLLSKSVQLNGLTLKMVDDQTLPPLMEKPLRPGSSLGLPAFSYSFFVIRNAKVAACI
T1 sequence (Q9Y251 36-109 limits assumed): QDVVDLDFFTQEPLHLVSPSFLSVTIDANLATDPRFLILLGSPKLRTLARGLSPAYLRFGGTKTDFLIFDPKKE
From the text: as §1, with “When HT1080 cells are scratched after having been cultured to confluency, cells are known to migrate in a heparanase activity-dependent manner (see Ishida, K., et al., Mol. Cancer Ther., 2004, 3(9): 1069-1077 (Non-Patent Document 4)).” left out
A431 cells (invasive human epithelial carcinoma cells) were cultured in DMEM medium containing 10% serum. […] The amount of protein in the cell extract was measured with a BCA Protein Assay Kit (Pierce, CA46141). […]
Heparanase activity was calculated from a calibration curve of the A431 cell extract, and inhibition rate (%) was indicated as a relative value to a reference (control) to which the cell extract was not added. […]
The plant extracts were evaluated for heparanase inhibitory effects in accordance with the aforementioned primary and secondary evaluation methods using sample solutions of the plant extracts instead of 4-(1H-benzoimidazol-2-yl)-phenylamine.

Structure (SMILES) | stainability of basement membrane heparan sulfate chains (immunostaining) [1] | mean value of wrinkle formation scores (visual evaluation; 0 no wrinkles to 3 deep wrinkles) (fine wrinkle model) | cell migration activity at scratched site (HT1080 cells) | IC50 (heparanase) [µM]
O=C(Nc1ccc(-c2nc3ccccc3[nH]2)cc1)Nc1ccc(-c2nc3ccccc3[nH]2)cc1 [1-[4-(1H-benzoimidazol-2-yl)-phenyl]-3-[4-(1H-benzoimidazol-2-yl)-phenyl]-urea] | protected | 0.36 | – | –
Nc1ccc(-c2nc3ccccc3[nH]2)cc1 [4-(1H-benzoimidazol-2-yl)-phenylamine] | – | – | decreased in a concentration-dependent manner | 256
Cc1ccc(C(=O)Nc2ccc(S(=O)(=O)O)c3cc(S(=O)(=O)O)cc(S(=O)(=O)O)c23)cc1NC(=O)c1cccc(NC(=O)Nc2cccc(C(=O)Nc3cc(C(=O)Nc4ccc(S(=O)(=O)O)c5cc(S(=O)(=O)O)cc(S(=O)(=O)O)c45)ccc3C)c2)c1 [suramin] | protected | 0.31 | – | –
